Results reported in patent publication US11155668B2, “Contact-killing, QAC functionalized thermoplastic polyurethane for catheter applications” (THE UNIVERSITY OF AKRON, priority 2017, dated 2021).

What was measured:
[1] = test system: E. coli; test: Contact-killing assay (adapted from ISO 22196) on allyl-TPU blade-coated samples modified with Qx-SH; assay type: cell-based, Escherichia coli (ATCC 25922); conditions: for log reduction in E. coli compared to the negative control / reduction in E. coli compared to the negative control: 24 h contact-killing assay; for Mean CFU/Sample Recovered, E. coli: n = 2, negative control polypropylene 2.04 (±0.06) × 10^6
Description: (§1) To functionalize the allyl-TPU blade-coated samples with Qx-SH reagents, thiol-ene reactions were performed using the same procedure described for rhodamine-SH. Briefly, blade-coated films of allyl-TPU (250 μm thick, 2.0 cm diameter, ca. 110 mg, 20 μmol allyl) were submerged in 2 mL of an Ar purged (30 min) aqueous solution containing Qx-SH (10.0 mM) and LAP (5.0 mM), and allowed to pre-soak for 30 min under Ar. UV-treated samples were irradiated for 30 min (λ=365 nm, I=1.2 mW·cm^−2) while phys. ads. samples were kept in the absence of UV light for 30 min to control for any antimicrobial activity that is contributed by non-covalently attached QAC. Following treatment, the dye/photoinitiator solutions were drawn up and discarded, and the samples were rinsed with 5 mL of DI water (3×) then submerged in 5 mL of DI water. The samples were further rinsed with 10% EtOH (3×) and soaked in 10% EtOH for 15 min (3×), rinsing with 10% EtOH in between each soak.
(§2) For antimicrobial testing, blade-coated samples and catheter tubing of allyl-TPU were sterilized by EtO sterilization using an Anprolene benchtop sterilizer (Anderson Products, Inc., Haw River, N.C.) following the manufacturer's protocol to deliver approximately 0.5 cc·L^−1 of EtO gas over a 12 h sterilization cycle at 35% humidity and room temperature, followed by a 48 h purge under vacuum. The bacterial strains used in this study included Staphylococcus epidermidis (ATCC 12228), Staphylococcus aureus (25923), Escherichia coli (ATCC 25922), Pseudomonas aeruginosa (ATCC 27853), Enterococcus faecalis (ATCC 29212), and methicillin-resistant Staphylococcus aureus (MRSA) (ATCC BAA-41).
The contact-killing assay was performed on physically adsorbed (phys. ads.), and UV-treated blade-coated samples modified with a series of Qx-SH reagents using a method adapted from ISO 22196. See, International Organization for Standardization. Measurement of antibacterial activity on plastics and other non porous surfaces (ISO 22196:2011), the disclosure of which is incorporated herein by reference in its entirety. Briefly, the samples were inoculated with same day cultures of select bacteria (e.g. E. coli, S. epidermidis) in dilute nutrient media (0.2% tryptic soy broth (TSB) in 1× phosphate buffered saline (PBS)) at approximately 150 colony-forming units (CFU)·mm^−2. Generally, 35 uL of 8.5×10^5 CFU/mL cultures were dispersed across the surface of the sample using sterile polypropylene cover films (area=198 mm^2). […] Following incubation, surviving cells were recovered from the samples using vigorous agitation (i.e. vortexing for 20 s in PBS). Surviving cells were enumerated via 10-fold series dilution and plating 100 μL onto tryptic soy agar (TSA), incubating overnight and then plate counting CFU. The mean CFU recovered per sample (CFU/sample) were calculated by accounting for dilutions. Internal controls samples of polypropylene and chlorhexidine treated with polypropylene were included in the assay.

[2] = test system: P. aeruginosa; test: as above; assay type: cell-based, Pseudomonas aeruginosa (ATCC 27853); conditions: for Mean CFU/Sample Recovered, P. aeruginosa: n = 1, negative control polypropylene 7.94 × 10^6
Description: as §1, §2
The contact-killing assay was performed on physically adsorbed (phys. ads.), and UV-treated blade-coated samples modified with a series of Qx-SH reagents using a method adapted from ISO 22196. See, International Organization for Standardization. Measurement of antibacterial activity on plastics and other non porous surfaces (ISO 22196:2011), the disclosure of which is incorporated herein by reference in its entirety. Briefly, the samples were inoculated with same day cultures of select bacteria (e.g. E. coli, S. epidermidis) in dilute nutrient media (0.2% tryptic soy broth (TSB) in 1× phosphate buffered saline (PBS)) at approximately 150 colony-forming units (CFU)·mm^−2. Generally, 35 uL of 8.5×10^5 CFU/mL cultures were dispersed across the surface of the sample using sterile polypropylene cover films (area=198 mm^2). Inoculated samples were incubated in a humidified room air incubator (36° C., ca. 80% rel. humidity) for 20 h. Following incubation, surviving cells were recovered from the samples using vigorous agitation (i.e. vortexing for 20 s in PBS). Surviving cells were enumerated via 10-fold series dilution and plating 100 μL onto tryptic soy agar (TSA), incubating overnight and then plate counting CFU. The mean CFU recovered per sample (CFU/sample) were calculated by accounting for dilutions. Internal controls samples of polypropylene and chlorhexidine treated with polypropylene were included in the assay.

Question: With `CCCCCCCC[N+](C)(C)CCCCCCCCOC(=O)CCS.[Cl-]` [Q8-SH] as the compound, how does the “log reduction in E. coli compared to the negative control” value ([1]; UV-treated samples) read?
Answer: 6 log

Question: And the “reduction in E. coli compared to the negative control” value ([1]; UV-treated samples)?
Answer: 99.9999%

Question: And the “Mean CFU/Sample Recovered, E. coli” value ([1]; UV-treated samples)?
Answer: 0.00 ± 0.00 CFU/Sample

Question: And the “log reduction in E. coli compared to the negative control” value ([1]; phys. ads. samples)?
Answer: 6 log

Question: What about the “reduction in E. coli compared to the negative control” value ([1]; phys. ads. samples) of the same compound?
Answer: 99.9999%

Question: And the “Mean CFU/Sample Recovered, E. coli” value ([1]; phys. ads. samples)?
Answer: 0.00 ± 0.00 CFU/Sample

Question: What about the “reduction of P. aeruginosa” value ([2]; UV-treated samples) of the same compound?
Answer: complete reduction

Question: What about the “Mean CFU/Sample Recovered, P. aeruginosa” value ([2]; UV-treated samples) of the same compound?
Answer: 0.00 CFU/Sample

Question: What about the “reduction of P. aeruginosa” value ([2]; phys. ads. samples) of the same compound?
Answer: complete reduction

Question: What about the “Mean CFU/Sample Recovered, P. aeruginosa” value ([2]; phys. ads. samples) of the same compound?
Answer: 0.00 CFU/Sample
